16 compounds from patent publication US20230271956A1, “AMIDE DERIVATIVES” (Merck Patent GmbH, priority 2020, published 2023) can be followed below.

Common to all, as to assay type: cell-based
The target in data set [1] is T1, ACSS2 (Homo sapiens, UniProt Q9NR19).
T1 construct: endogenous fatty acid synthesis activity in the human HCT-15 cancer cell line; endogenous in cells; host or cells: HCT-15
The experiment in a line: Cellular assay of 14C acetate incorporation into fatty acids (IC50 ACSS2 cellular lipids). To be noted: HCT-15 cells. How it is done: This protocol describes a cellular assay capable to quantify endogenous fatty acid synthesis activity in the human HCT-15 cancer cell line following the incorporation of extracellularly administered radiolabeled ^14C acetate with a scintillation proximity based read out on extracted fatty acids.
HCT-15 cells were grown in RPMI 1640 (Gibco) supplemented with 2 mM glutamine, 1 mM sodium pyruvate 10 mM HEPES and 10 % FCS (heat-inactivated) passaged every 2-3 days to remain a subconfluent, vital culture. A working cell bank was prepared with each aliquot containing 1x10^7 viable cells. After thawing, these cells are dilute immediately 1:20 in pre-warmed (37° C.) culture medium. Cells are collected by centrifugation at 200 x g for 5 min, and the supernatant is replaced by 30 mL of fresh culture medium per aliquot to obtain a cell suspension containing 350000 cells/ml. From this cell suspension 100 µL are dispersed into each well of a collagen coated 96 well plate, (black, clear bottom, PS, F-bottom, Greiner) and culture for 24 h (37° C., 5% CO2). After incubation the culture medium is removed and the wells are washed once with 100 µL PBS++ (supplemented with Mg^2+/ Ca^2+, Gibco) and 50 µL assay medium (RPMI 1640 + 10 mM HEPES) are added to each well. Compounds serial dilutions are prepared from 10 mM stock solutions in DMSO using a fixed dilution factor (usually 1:3). After preparation of the dilution series in DMSO, the individual dilutions are further diluted in the assay medium. This working dilution is prepared such, that the concentration is 7x of the final concentration in the assay. The maximal DMSO concentration in the final assay is 0.1%.
To each well 10 µL compound working dilution or DMSO blank are added and the cells are cultured for 2 h (37° C., 5% CO2). Then 10 µL AlamarBlue reagent (Invitrogen) containing 14 µCi/mL ^14C-acetate (Perkin Elmer) are added to each well (70 µl total volume) and cells are again cultured for 2 h. Cell viability is verified by measuring the AlamarBlue fluorescence (Tecan Safire, ex: 544 nm / em: 590 nm). After incubation the culture medium is removed and the wells are carefully washed once with cold 100 µL PBS++. For cell lysis and fatty acid recovery 50 µl 0.1 M NaOH and 0.1 % Triton-X100 are added per well. The plate is sealed with PlateLoc (clear peelable heat seal, Agilent) and incubate at 70° C. for 16-24 h. After cooling to room temperature, the plates are centrifuged for 1 min at 1000 rpm and the plate seals are removed. For acidification 150 µL 0.1 M HCl are added to each well, mixed and 150 µL of the mixture are transferred into a 96 well FlashPlate (Perkin Elmer). The plates are sealed with TopSeaI-a (Perkin Elmer). To allow for the fatty acid binding to the well surfaces the plates are incubate for 4 h at 70° C. After cooling to room temperature, the plates are centrifuged for 1 min at 1000 rpm and stored for 0.5-2 h at room temperature in the dark. Radioactivity from ^14C incorporation into fatty acids in the wells is measured as CPM count in a MicroBeta scintillation counter (Perkin Elmer).

Data set [2] addresses T1, ACSS2. The experiment in a line: Cellular assay of 14C acetate incorporation into histones (IC50 ACSS2 cellular histone). To be noted: HCT-15 cells. An outline of the steps: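 Human HCT-15 cells preincubated 1 h with compound (0.25% DMSO final), then pulsed 3 h with 14C-acetate. Histones were acid-extracted (0.2 M HCl, overnight, 4° C) after Triton lysis in sodium-butyrate buffer; incorporated 14C counted by liquid scintillation (CPM) to give IC50.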

The test system of data set [3] is CHO-K1 cells. As to the kind of experiment: Micronucleus assay (MNT) in vitro. To be noted: 24 hrs treatment, 0.2 µM to 100 µM. Also noted: key: A: negative, putative negative (micronuclei detected beyond threshold of 60% cyctotoxicity); B: positive. Here is the method: The in vitro MNT assay is performed in CHO-K1 cells due to their stable and welI-characterized karyotype, high sensitivity and suitability for a high content imaging approach. They have a basal spontaneous micronucleus frequency of 3-4%.
24 hrs after plating CHO-K1 cells are treated with test compounds for 24 hrs (in duplicates; fixed concentration ranges from 0.2 µM to 100 µM in 2-fold dilution steps). After a medium change cells are incubated for 24 hrs with Cytochalasin B to block cytokinesis and are then fixed and nuclei / micronuclei visualized with a DNA stain. Images are acquired with the Molecular Devices high content imagers IXU or IXM and are analyzed with the dedicated MetaXpress software micronucleus module. Criteria for scoring of micronuclei (MN) are the following: • diameter of the MN should be less than ⅓ of the main nucleus • MN should be separated from or marginally overlap with main nucleus (= no blebs) • MN should have similar staining as the main nucleus At least 1000 binucleated cells are evaluated per treatment replicate. Mitomycin C is used as reference stimulator of micronucleus formation. Cytotoxicity is evaluated in parallel and defined by comparing total nuclei count in compound-treated samples to neutral control samples treated with vehicle only (1% DMSO) (100% cytotoxicity means all cells are dead or lost).
A test compound is regarded as POSITIVE if generation of micronuclei and exhibition of less than 60% cytotoxicity at the same concentration can be observed.
Compounds are scored only in the soluble concentration range. Experimental data of the compounds shown in Table 1 in the MNT assay are shown in Table 2 below and classified in the following groups: […]

T1 sequence (Q9NR19 whole entry): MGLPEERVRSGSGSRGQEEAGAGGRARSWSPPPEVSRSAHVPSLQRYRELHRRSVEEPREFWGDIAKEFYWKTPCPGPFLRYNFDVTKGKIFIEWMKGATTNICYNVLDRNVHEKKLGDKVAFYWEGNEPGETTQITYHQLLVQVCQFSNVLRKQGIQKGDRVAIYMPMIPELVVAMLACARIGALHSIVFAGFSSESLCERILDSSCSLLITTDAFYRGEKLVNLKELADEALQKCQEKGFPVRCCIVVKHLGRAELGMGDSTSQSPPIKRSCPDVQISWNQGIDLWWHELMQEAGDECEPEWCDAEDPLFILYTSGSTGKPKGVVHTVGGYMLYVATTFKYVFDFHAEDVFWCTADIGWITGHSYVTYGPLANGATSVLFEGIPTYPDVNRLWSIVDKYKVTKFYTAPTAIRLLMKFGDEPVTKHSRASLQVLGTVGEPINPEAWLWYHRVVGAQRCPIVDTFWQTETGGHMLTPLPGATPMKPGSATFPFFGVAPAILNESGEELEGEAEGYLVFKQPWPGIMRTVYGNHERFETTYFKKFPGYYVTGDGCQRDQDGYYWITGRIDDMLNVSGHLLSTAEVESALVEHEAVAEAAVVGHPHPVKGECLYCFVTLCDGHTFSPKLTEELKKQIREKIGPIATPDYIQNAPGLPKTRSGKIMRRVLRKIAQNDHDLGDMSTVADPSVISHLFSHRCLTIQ

For `CCn1cnc(NC(=O)c2cc3c(nc2OC)nc(C(O)(c2ccccc2)c2ccccc2)n3CC)n1` [Compound 103, 1-ethyl-N-(1-ethyl-1H-1,2,4-triazol-3-yl)-2-(hydroxydiphenylmethyl)-5-methoxy-1H-imidazo[4,5-b]pyridine-6-carboxamide], the IC50 was in the range of 1 to 10 nM in data set [1] and 0.01 to 1 nM in data set [2]. The MNT result in data set [3] is recorded as “A”.

Take `CCn1cnc(NC(=O)c2cc3c(nc2F)nc(C(O)(c2ccccc2F)c2ccccc2F)n3CC)n1` [Compound 91, 2-[bis(2-fluorophenyl)(hydroxy)methyl]-1-ethyl-N-(1-ethyl-1H-1,2,4-triazol-3-yl)-5-fluoro-1H-imidazo[4,5-b]pyridine-6-carboxamide]: the IC50 in data set [1] lay within 1 to 10 nM; in data set [2], 0.01 to 1 nM. The MNT result in data set [3] is on record as “A”.

For `CCc1c(C(O)(c2ccccc2F)c2ccccc2F)nn2cc(C)c(C(=O)Nc3ncn(CC)n3)cc12` [Compound 3, 2-[Bis-(2-fluoro-phenyl)-hydroxy-methyl]-3-ethyl-6-methyl-pyrazolo[1,5-a]pyridine-5-carboxylic acid (1-ethyl-1H-[1,2,4]triazol-3-yl)-amide], the IC50 in data set [1] was in the range of 10 to 100 nM; in data set [2] it was 1 to 10 nM. In addition, the MNT result in data set [3] was “A”.

As to `CCc1c(C(O)(c2ccccc2)c2ccccc2)nn2ccc(C(=O)Nc3cnn(CC)c3)cc12` [Compound 10, 3-Ethyl-2-(hydroxy-diphenyl-methyl)-pyrazolo[1,5-a]pyridine-5-carboxylic acid (1-ethyl-1H-pyrazol-4-yl)-amide], the IC50 in data set [1] and in data set [2] was 10 to 100 nM each time. Further, the MNT entry in data set [3] is listed as “A”.

For the compound `CCc1c(C(O)(c2ccccc2F)c2ccccc2F)nc2cc(OC)c(C(=O)Nc3cnn(CC)c3)cn12` [Compound 30, 2-[Bis-(2-fluoro-phenyl)-hydroxy-methyl]-3-ethyl-7-methoxy-imidazo[1,2-a]pyridine-6-carboxylic acid (1-ethyl-1H-pyrazol-4-yl)-amide], the 50% inhibitory concentration (IC50) in data set [1] lay in the range of 0.01 to 1 nM; in data set [2], 1 to 10 nM. The MNT result in data set [3] is reported as “A”.

In the case of `CCn1cc(NC(=O)c2cc3c(nc2Cl)nc(C(O)(c2ccccc2)c2ccccc2)n3CC)cn1` [Compound 98, 5-chloro-1-ethyl-N-(1-ethyl-1H-pyrazol-4-yl)-2-(hydroxydiphenylmethyl)-1H-imidazo[4,5-b]pyridine-6-carboxamide], the IC50 in data set [1] fell in the range of 10 to 100 nM; in data set [2] it was 1 to 10 nM. Moreover, in data set [3], the MNT result is recorded as “A”.

Take `CCc1c(C(O)(c2ccccc2)c2ccccc2)nc2ccc(C(=O)Nc3cnn(CC)c3)cn12` [Compound 13, 3-Ethyl-2-(hydroxy-diphenyl-methyl)-imidazo[1,2-a]pyridine-6-carboxylic acid (1-ethyl-1H-pyrazol-4-yl)-amide]: the IC50 in data set [1] fell in the range of 100 to 10000 nM; in data set [2], 10 to 100 nM. For the same compound, in data set [3], the MNT entry was “A”.

As for `CCc1c(C(O)(c2ccccc2)c2ccccc2)nc2cc(OC)c(C(=O)Nc3cnn(CC)c3)cn12` [Compound 23, 3-Ethyl-2-(hydroxy-diphenyl-methyl)-7-methoxy-imidazo[1,2-a]pyridine-6-carboxylic acid (1-ethyl-1H-pyrazol-4-yl)-amide], the IC50 is 10 to 100 nM in data set [1] and 1 to 10 nM in data set [2]. Further, in data set [3], the MNT entry was “A”.

Turning to `CCc1c(C(O)(c2ccccc2F)c2ccccc2F)nc2cc(OC)c(C(=O)Nc3ncn(CC)n3)cn12` [Compound 28, 2-[Bis-(2-fluoro-phenyl)-hydroxy-methyl]-3-ethyl-7-methoxy-imidazo[1,2-a]pyridine-6-carboxylic acid (1-ethyl-1H-[1,2,4]triazol-3-yl)-amide], the values for the IC50 in data set [1] and in data set [2] were 1 to 10 nM and 0.01 to 1 nM, respectively. Further, the MNT entry in data set [3] is on record as “A”.

In the case of `CCn1c(C(O)(c2ccccc2)c2ccccc2)nc2ccc(C(=O)NC[C@@H](C)O)cc21` [Reference Compound, 3-Ethyl-2-[hydroxy(diphenyl)methyl]-N-[(2R)-2-hydroxypropyl]benzimidazole-5-carboxamide, reference compound], the values for the concentration for half-maximal inhibition (IC50) in data set [1] and in data set [2] were 1 to 10 nM and 0.01 to 1 nM, respectively. Besides, in data set [3], the MNT entry is given as “B”.

With `CCn1cc(NC(=O)c2cc3c(nc2F)nc(C(O)(c2ccccc2F)c2ccccc2F)n3CC)cn1` [Compound 90, 2-[bis(2-fluorophenyl)(hydroxy)methyl]-1-ethyl-N-(1-ethyl-1H-pyrazol-4-yl)-5-fluoro-1H-imidazo[4,5-b]pyridine-6-carboxamide], the IC50 in data set [1] and in data set [2] was 1 to 10 nM throughout. Further, in data set [3], the MNT result is on record as “A”.

On to `CCn1cnc(NC(=O)c2cc3c(nc2OC)nc(C(O)(c2ccccc2)c2ccccn2)n3CC)n1` (single isomer, unassigned) [Compound 53, 1-ethyl-N-(1-ethyl-1H-1,2,4-triazol-3-yl)-2-[hydroxy(phenyl)(pyridin-2-yl)methyl]-5-methoxy-1H-imidazo[4,5-b]pyridine-6-carboxamide], for which the IC50 in data set [1] and in data set [2] was 0.01 to 1 nM throughout. Further, in data set [3], the MNT entry is “in-conclusive”.

As to `CCn1cnc(NC(=O)c2cc3c(nc2OC)nc(C(O)(c2ccccc2F)c2ccccc2F)n3CC)n1` [Compound 102, 2-[bis(2-fluorophenyl)(hydroxy)methyl]-1-ethyl-N-(1-ethyl-1H-1,2,4-triazol-3-yl)-5-methoxy-1H-imidazo[4,5-b]pyridine-6-carboxamide], the results for the IC50 in data set [1] and in data set [2] were 1 to 10 nM and 0.01 to 1 nM, respectively. The MNT entry in data set [3] is listed as “A”.

With `CCc1c(C(O)(c2ccccc2F)c2ccccc2F)nn2cc(OC)c(C(=O)Nc3cnn(CC)c3)cc12` [Compound 4, 2-[Bis-(2-fluoro-phenyl)-hydroxy-methyl]-3-ethyl-6-methoxy-pyrazolo[1,5-a]pyridine-5-carboxylic acid (1-ethyl-1H-pyrazol-4-yl)-amide], the IC50 was 10 to 100 nM in data set [1] and 1 to 10 nM in data set [2]. In data set [3], the MNT result is “A”.

Consider `CCc1c(C(O)(c2ccccc2)c2ccccc2)nc2cc(F)c(C(=O)Nc3ncn(CC)n3)cn12` [Compound 20, 3-Ethyl-7-fluoro-2-(hydroxy-diphenylmethyl)-imidazo[1,2-a]pyridine-6-carboxylic acid (1-ethyl-1H-[1,2,4]triazol-3-yl)-amide], for which the IC50 in data set [1] is 1 to 10 nM; in data set [2], 0.01 to 1 nM. For the same compound, in data set [3], the MNT result is listed as “A”.

In the case of `CCc1c(C(O)(c2ccccc2)c2ccccc2)nc2ccc(C(=O)Nc3ncn(CC)n3)cn12` [Compound 25, 3-Ethyl-2-(hydroxy-diphenyl-methyl)-imidazo[1,2-a]pyridine-6-carboxylic acid (1-ethyl-1H-[1,2,4]triazol-3-yl)-amide], the IC50 in data set [1] fell in the range of 1 to 10 nM; in data set [2], 0.01 to 1 nM. Further, the MNT result in data set [3] is on record as “A”.
